From patent US9682953B2, “Amide compounds, compositions and applications thereof” (Advinus Therapeutics Limited, priority 2011, dated 2017)
Where a name gives a salt, the structure may show the parent alone. Read-outs that look alike come from different tables or passages of the source.

Columns and labels:
[1] = target: human Fatty Acid Amide Hydrolase (FAAH) (Homo sapiens (Human), UniProt O00519); assay: biochemical; details: for inhibition at 0.1 µM: read-out: hFAAH % inhibition at 100 nM, 100 nM (tier I)
[2] = target: rat Fatty Acid Amide Hydrolase (FAAH) (Rattus norvegicus (Rat), UniProt P97612); assay: FAAH in vitro fluorescence assay (AAMCA hydrolysis), rat enzyme; format: biochemical; details: rat FAAH; for rFAAH % inhibition at 100 nM / inhibition at 0.1 µM: 100 nM (tier I); for IC50: read-out: rFAAH IC50; for inhibition at 0.1 µM: read-out: rFAAH % inhibition at 100 nM; for inhibition at 10 µM: read-out: rFAAH % inhibition at 10 uM
Experimental: Material and Reagents: All reagents were purchased from Sigma-Aldrich unless specified. […] Chaperone protein groEL-groES in pGRO7 plasmid (Takara Bio Inc, Japan) was co-expressed with Fatty Acid Amide Hydrolase (FAAH) to improve solubility of the protein expressed in E coli. […] Briefly, the bacterial cultures in Luria Broth (2 L) were induced with arabinose (2 mM) and Isopropyl (β-D-1-thiogalactopyranoside, IPTG (1 mM), for 20 h at room temperature. The cultures were centrifuged at 1200×g for 10 min and the cell pellet was resuspended in 100 mL buffer containing of 20 mM NaPi (pH 7.4), 100 mM NaCl, Benzonase (500u), Aprotinin (1 μg/mL) and Leupeptin (1 μg/mL). Cells were lyzed by sonication (Amp 20%, Pulse 15 s×15, on ice) and the cell debris removed by centrifugation at 5000×g for 20 min. The supernatant was enriched via ultracentrifugation at 100,000×g for 1 h and the cell pellet was resuspended in 16 mL buffer containing 20 mM NaPi (pH 7.8), 500 mM NaCl, 1% Triton X-100. The resuspended cell extract was subjected to ultra-centrifugation at 100,000×g for 1 h and the enriched supernatant was used in the in vitro assay. All protein extraction steps were carried out on ice or at 4° C.
The assay was carried out in 200 μL volume in a 96-well black polystyrene plate (Greiner Bio-one, Germany). Each reaction consisted of human Fatty Acid Amide Hydrolase (FAAH) protein and 10 μM AAMCA in assay buffer containing 50 mM HEPES, 1 mM EDTA and 0.1% BSA, pH 7.4. The reaction was incubated with 2 μL of varying concentrations of inhibitor in DMSO (final concentration of DMSO 1%) with shaking for 1 min and monitored for increase in fluorescence in kinetic mode for 50 min. […] Rate of reaction as a function of the concentration of the inhibitor was used to determine the IC50 of the inhibitors. Data was analyzed using GraphPad Prism 5 (GraphPad Software Inc., San Diego, Calif.). The activity of the compounds for rat Fatty Acid Amide Hydrolase (FAAH) was evaluated as described above with rat Fatty Acid Amide Hydrolase (FAAH) protein and 10 μM AAMCA substrate.

[3] = human FAAH, read-out: hFAAH IC50

Sequence of human Fatty Acid Amide Hydrolase (FAAH) (O00519 30-579): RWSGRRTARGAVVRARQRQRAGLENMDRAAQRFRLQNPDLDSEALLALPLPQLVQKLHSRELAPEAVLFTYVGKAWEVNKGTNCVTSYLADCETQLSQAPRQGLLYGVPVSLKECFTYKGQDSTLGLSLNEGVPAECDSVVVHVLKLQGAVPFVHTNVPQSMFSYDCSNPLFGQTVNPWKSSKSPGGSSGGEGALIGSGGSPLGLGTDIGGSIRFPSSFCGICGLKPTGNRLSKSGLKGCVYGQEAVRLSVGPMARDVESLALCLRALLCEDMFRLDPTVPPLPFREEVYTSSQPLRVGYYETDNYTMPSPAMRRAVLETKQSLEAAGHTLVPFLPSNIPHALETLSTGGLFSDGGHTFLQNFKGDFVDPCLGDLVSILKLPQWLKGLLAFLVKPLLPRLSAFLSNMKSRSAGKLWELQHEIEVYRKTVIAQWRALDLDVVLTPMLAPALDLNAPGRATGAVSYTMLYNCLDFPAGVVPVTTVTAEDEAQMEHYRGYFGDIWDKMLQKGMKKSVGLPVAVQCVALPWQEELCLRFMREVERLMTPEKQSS
Sequence of rat Fatty Acid Amide Hydrolase (FAAH) (P97612 30-579): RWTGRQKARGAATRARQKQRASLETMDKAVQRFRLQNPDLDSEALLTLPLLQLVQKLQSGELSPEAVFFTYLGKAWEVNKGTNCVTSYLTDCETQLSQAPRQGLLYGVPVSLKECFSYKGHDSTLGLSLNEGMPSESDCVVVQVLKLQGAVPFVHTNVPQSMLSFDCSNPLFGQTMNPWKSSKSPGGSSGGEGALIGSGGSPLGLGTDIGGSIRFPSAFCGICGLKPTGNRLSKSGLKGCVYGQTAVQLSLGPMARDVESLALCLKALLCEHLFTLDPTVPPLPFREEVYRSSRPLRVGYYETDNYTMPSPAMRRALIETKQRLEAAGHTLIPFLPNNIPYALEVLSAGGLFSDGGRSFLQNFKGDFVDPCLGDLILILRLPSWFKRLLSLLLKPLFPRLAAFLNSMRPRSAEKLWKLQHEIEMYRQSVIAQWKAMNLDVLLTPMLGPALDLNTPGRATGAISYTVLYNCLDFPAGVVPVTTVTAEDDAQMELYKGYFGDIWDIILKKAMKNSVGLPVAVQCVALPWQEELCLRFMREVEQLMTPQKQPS

In the case of `Cc1ccc(C(=O)NC2CCC(=Cc3cccc(Oc4ccc(C(F)(F)F)cn4)c3)CC2)c(C)n1` (stereo not drawn) [Example 2.A-37, 2,6-Dimethyl-N-[4-[[3-[[5-(trifluoromethyl)-2-pyridyl]oxy]phenyl]methylene]cyclohexyl]pyridine-3-carboxamide], the IC50 [1, 3] is reported as 57 nM and the “rFAAH % inhibition at 100 nM” value [2] is reported as “No inhibition at 100 nM”.
For `O=C(NC1CCC(=Cc2cccc(Oc3ccc(C(F)(F)F)cn3)c2)CC1)c1ccc(-n2cnnc2)nc1` (stereo not drawn) [Example 2.B-13, 6-(1,2,4-Triazol-4-yl)-N-[4-[[3-[[5-(trifluoromethyl)-2-pyridyl]oxy]phenyl]methylene]cyclohexyl]pyridine-3-carboxamide], the IC50 ([1]; read-out: hFAAH IC50) was 2 nM and the IC50 [2] was 14 nM.
Work on `Cn1cc(C(=O)NC2CCC(=Cc3cccc(Oc4ccc(C(F)(F)F)cn4)c3)CC2)cn1` (stereo not drawn) [Example 2.A-18, 1-Methyl-N-[4-[[3-[[5-(trifluoromethyl)-2-pyridyl]oxy]phenyl]methylene]cyclohexyl]pyrazole-4-carboxamide] yielded an inhibition at 0.1 µM ([1]; human FAAH) of 45% and an inhibition at 0.1 µM [2] of 38%.
With `Nc1ccc(C(=O)NC2CCC(=Cc3cccc(Oc4ccc(C(F)(F)F)cn4)c3)CC2)cn1` (single isomer, unassigned; (-)) [Example 20.A-4, (−)-6-Amino-N-[4-[[3-[[5-(trifluoromethyl)-2-pyridyl]oxy]phenyl]methylene]cyclohexyl]pyridine-3-carboxamide] the IC50 ([1]; read-out: hFAAH IC50) was 1 nM and the IC50 [2] was 11 nM.
For `O=C(NC1CCC(=Cc2cccc(Oc3ccc(C(F)(F)F)cn3)c2)CC1)c1c[nH]nc1C(F)(F)F` (single isomer, unassigned; (+)) [Example 20.A-7, (+)-3-(Trifluoromethyl)-N-[4-[[3-[[5-(trifluoromethyl)-2-pyridyl]oxy]phenyl]methylene]cyclohexyl]-1H-pyrazole-4-carboxamide], the IC50 ([1]; read-out: hFAAH IC50) was 67 nM and the inhibition at 10 µM [2] was 85%.
In the case of `O=C(NC1CCC(=Cc2cccc(Oc3ccc(C(F)(F)F)cn3)c2)CC1)c1cn[nH]c1` (single isomer, unassigned; (-)) [Example 20.A-12, (−)-N-[4-[[3-[[5-(trifluoromethyl)-2-pyridyl]oxy]phenyl]methylene]cyclohexyl]-1H-pyrazole-4-carboxamide], the IC50 [1, 3] is reported as 1.7 nM and the IC50 [2] is reported as 35.5 nM.
`Cc1cc(C(=O)NC2CCC(=Cc3cccc(Oc4ccc(C(F)(F)F)cn4)c3)CC2)cnc1N` (single isomer, unassigned; (-)) [Example 20.A-6, (−)-6-Amino-5-methyl-N-[4-[[3-[[5-(trifluoromethyl)-2-pyridyl]oxy]phenyl]methylene]cyclohexyl]pyridine-3-carboxamide] gave an IC50 [1, 3] of 1 nM and an IC50 [2] of 10 nM.
For `Cc1nnc(C(=O)NC2CCC(=Cc3cccc(Oc4ccc(C(F)(F)F)cn4)c3)CC2)o1` (stereo not drawn) [Example 2.A-20, 5-Methyl-N-[4-[[3-[[5-(trifluoromethyl)-2-pyridyl]oxy]phenyl]methylene]cyclohexyl]-1,3,4-oxadiazole-2-carboxamide], the IC50 [1, 3] was 334 nM and the “rFAAH % inhibition at 100 nM” value [2] was “No inhibition at 100 nM”.
Compound `Cc1cc(C(=O)NC2CCC(=Cc3cccc(Oc4ccc(C(F)(F)F)cn4)c3)CC2)cnc1N` (single isomer, unassigned; (+)) [Example 20.A-5, (+)-6-Amino-5-methyl-N-[4-[[3-[[5-(trifluoromethyl)-2-pyridyl]oxy]phenyl]methylene]cyclohexyl]pyridine-3-carboxamide] has an IC50 [1, 3] of 247 nM.
For `Cc1nc(Oc2cccc(C=C3CCC(NC(=O)c4cnc(N)nc4)CC3)c2)ccc1Cl` (single isomer, unassigned; (-)) [Example 20.A-22, (−)-2-Amino-N-[4-[[3-[(5-chloro-6-methyl-2-pyridyl)oxy]phenyl]methylene]cyclohexyl]pyrimidine-5-carboxamide], the IC50 [1, 3] was 1.1 nM.
With `O=C(NC1CCC(=Cc2cccc(Oc3ccc(C(F)(F)F)cn3)c2)CC1)c1cncnc1` (single isomer, unassigned; (+)) [Example 20.A-19, (+)-N-[4-[[3-[[5-(trifluoromethyl)-2-pyridyl]oxy]phenyl]methylene]cyclohexyl]pyrimidine-5-carboxamide] the IC50 ([1]; read-out: hFAAH IC50) was 14.3 nM.
`Nc1ncc(C(=O)NC2CCC(=Cc3cccc(Oc4ccc(C(F)(F)F)cn4)c3)CC2)cn1` (single isomer, unassigned; (+)) [Example 20.A-9] gave an IC50 ([1]; read-out: hFAAH IC50) of 40 nM.
`Nc1ncccc1C(=O)NC1CCC(=Cc2cccc(Oc3ccc(C(F)(F)F)cn3)c2)CC1` (stereo not drawn) [Example 2.C-5, 2-Amino-N-[4-[[3-[[5-(trifluoromethyl)-2-pyridyl]oxy]phenyl]methylene]cyclohexyl]pyridine-3-carboxamide] was tested, and the IC50 [1, 3] was 37 nM.
`O=C(Nc1cccnc1)C1CCC(=Cc2cccc(Oc3ccc(C(F)(F)F)cn3)c2)CC1` (stereo not drawn) [Example 1.2, N-(3-Pyridyl)-4-[[3-[[5-(trifluoromethyl)-2-pyridyl]oxy]phenyl]-methylene]cyclohexanecarboxamide hydrochloride] was tested, and the IC50 ([1]; hFAAH IC50) was 17 nM.
`O=C(NC1CCC(=Cc2cccc(Oc3ccc(C(F)(F)F)cn3)c2)CC1)c1cccnc1` (single isomer, unassigned; (-)) [Example 20.A-2, (−)-N-[4-[[3-[[5-(Trifluoromethyl)-2-pyridyl]oxy]phenyl]methylene]cyclohexyl]pyridine-3-carboxamide] was tested, and the IC50 ([1]; hFAAH IC50) was 0.7 nM.
`Cc1[nH]nc(C(F)(F)F)c1C(=O)NC1CCC(=Cc2cccc(Oc3ccc(C(F)(F)F)cn3)c2)CC1` (stereo not drawn) [Example 2.A-36, 5-Methyl-3-(trifluoromethyl)-N-[4-[[3-[[5-(trifluoromethyl)-2-pyridyl]oxy]phenyl]methylene]cyclohexyl]-1H-pyrazole-4-carboxamide] showed an inhibition at 0.1 µM ([1]; human FAAH) of 50%.
`O=C(Nc1cccnn1)C1CCC(=Cc2cccc(Oc3ccc(C(F)(F)F)cn3)c2)CC1` (stereo not drawn) [Example 1.A-1, N-Pyridazin-3-yl-4-[[3-[[5-(trifluoromethyl)-2-pyridyl]oxy]phenyl]methylene]cyclohexanecarboxamide] was tested, and the IC50 [1, 3] was 17 nM.
`O=C(NC1CCC(=Cc2cccc(Oc3ccc(C(F)(F)F)cn3)c2)CC1)c1ccc(O)nc1` (stereo not drawn) [Example 2.C-3, 6-Hydroxy-N-[4-[[3-[[5-(trifluoromethyl)-2-pyridyl]oxy]phenyl]methylene]cyclohexyl]pyridine-3-carboxamide] gave an IC50 [1, 3] of 19 nM.
`O=C(NC1CCC(=Cc2cccc(Oc3ccc(C(F)(F)F)cn3)c2)CC1)c1nc2cccnc2s1` [Example 2.D-3, N-[4-[[3-[[5-(Trifluoromethyl)-2-pyridyl]oxy]phenyl]methylene]cyclohexyl]thiazolo[5,4-b]pyridine-2-carboxamide] showed an inhibition at 0.1 µM [2] of 38%.
With `O=C(NC1CCC(=Cc2cccc(Oc3ccc(C(F)(F)F)cn3)c2)CC1)c1cncnc1` (single isomer, unassigned; (-)) [Example 20.A-20, (−)-N-[4-[[3-[[5-(Trifluoromethyl)-2-pyridyl]oxy]phenyl]methylene]cyclohexyl]pyrimidine-5-carboxamide] the IC50 ([1]; read-out: hFAAH IC50) was 0.8 nM.
With `O=C(O)Cn1cc(C(=O)NC2CCC(=Cc3cccc(Oc4ccc(C(F)(F)F)cn4)c3)CC2)cn1` (stereo not drawn) [Example 8.A-2, 2-[4-[[4-[[3-[[5-(Trifluoromethyl)-2-pyridyl]oxy]phenyl]methylene]cyclohexyl]carbamoyl]pyrazol-1-yl]acetic acid] the inhibition at 0.1 µM ([1]; human FAAH) was 40%.
In the case of `O=C(NC1CCC(=Cc2cccc(Oc3ccc(C(F)(F)F)cn3)c2)CC1)c1cccnc1` (single isomer, unassigned; (+)) [Example 20.A-1, (+)-N-[4-[[3-[[5-(Trifluoromethyl)-2-pyridyl]oxy]phenyl]methylene]cyclohexyl]pyridine-3-carboxamide], the inhibition at 10 µM [2] is reported as 60%.
`O=C(NC1CCC(=Cc2cccc(Oc3ccc(C(F)(F)F)cn3)c2)CC1)c1cccnc1` (stereo not drawn) [Example 2.1, N-[4-[[3-[[5-(Trifluoromethyl)-2-pyridyl]oxy]phenyl]methylene]cyclohexyl]pyridine-3-carboxamide] showed an IC50 ([1]; hFAAH IC50) of 2 nM.
For `O=C(NC1CCC(=Cc2cccc(Oc3ccc(C(F)(F)F)cn3)c2)CC1)c1ccc(-n2ccc(C(=O)O)n2)nc1` (stereo not drawn) [Example 8.A-5, 1-[5-[[4-[[3-[[5-(Trifluoromethyl)-2-pyridyl]oxy]phenyl]methylene]cyclohexyl]carbamoyl]-2-pyridyl]pyrazole-3-carboxylic acid], the inhibition at 0.1 µM [2] was 55%.
In the case of `Cc1nc(Oc2cccc(C=C3CCC(NC(=O)c4cnc(N)nc4)CC3)c2)ccc1Cl` (single isomer, unassigned; (+)) [Example 20.A-21, (+)-2-Amino-N-[4-[[3-[(5-chloro-6-methyl-2-pyridyl)oxy]phenyl]methylene]cyclohexyl]pyrimidine-5-carboxamide], the IC50 [1, 3] is reported as 9 nM.
